Assay results: US20150197497A1, “SELECTIVE INHIBITORS OF HISTONE DEACETYLASE ISOFORM 6 AND METHODS THEREOF” (DANA-FARBER CANCER INSTITUTE, INC., priority 2011, published 2015)

Columns and labels:
[1] = target: T1, HDAC1 (Homo sapiens, UniProt Q13547); assay: In vitro HDAC enzyme inhibition assay, HDAC1; type: biochemical; conditions: for HDAC1/HDAC6 in vitro selectivity: ratio of IC50 for HDAC1 relative to that of HDAC6; for IC50: recombinant full-length HDAC1, substrate MAZ1600 21 μM
T1 construct: Recombinant, full-length HDAC protein (BPS Biosciences) was incubated with fluorophore conjugated substrate; purchased BPS Biosciences
Procedure: (§1) In vitro Histone Deacetylase enzyme assays were performed using Class I (isoforms: HDAC1, HDAC2, HDAC3 and HDAC8), class IIa (isoforms: HDAC4, HDAC5, HDAC7 and HDAC9) and class IIb (isoform HDAC6).
(§2) HDAC activities were determined in vitro with an optimized homogenous assay performed in a 384-well plate. Recombinant, full-length HDAC protein (BPS Biosciences) was incubated with fluorophore conjugated substrate, MAZ1600 and MAZ1675, at Km=[S]. […] Reactions were performed in assay buffer (50 mM HEPES, 100 mM KCl, 0.001% Tween-20, 0.05% BSA, 200 μM tris(2-carboxyethyl)phosphine (TCEP), pH 7.4) and followed for fluorogenic release of 7-amino-4-methylcoumarin from substrate upon deacetylase and trypsin enzymatic activity. Fluorescence measurements were obtained every five minutes using a multilabel plate reader and plate-stacker (Envision; Perkin-Elmer). Each plate was analyzed by plate repeat, and the first derivative within the linear range was imported into analytical software (Spotfire DecisionSite and GraphPad Prism). Replicate experimental data from incubations with inhibitor were normalized to controls.

[2] = test system: acetylated tubulin; assay: High-content image analysis of induction of acetylated tubulin in A549 cells; conditions: for EC50: Homo sapiens, A549, 8 h, read-out: EC50 for half-maximal induction of acetylated tubulin (AcTubulin); for AcHistone/AcTubulin in cell selectivity toward HDAC6: ratio of EC50 acetylated histone to EC50 acetylated tubulin, A549 cells
Procedure: (§3) Cells were treated with each test HDACi compound with an automated pin transfer instrument (Janus, Perkin Elmer) and incubated for 8 hours. […] Fixation solution was aspirated and 90 μL of washing solution (0.1% Triton X-100 in PBS) was added prior to 10 minute incubation at 4° C. Washing solution was aspirated and cells were incubated at 4° C. for about 1 hour in blocking solution (0.1% Triton X-100+2% BSA in PBS). Washing solution was aspirated, and cells were incubated for about 1 hour at 4° C. in primary antibody for acetylated-tubulin (Sigma T7451) and acetylated-histone (Cell Signaling #9441L) at a 1:1000 dilution in blocking solution. Primary antibody solution was aspirated, and cells were washed three times in 90 μL of washing solution. […] Secondary antibody and nuclear staining solution was aspirated and cells were washed three times in 90 μL of washing solution. After the third wash, 50 μL of PBS was added to each well. Image acquisition was done on a high content imaging microscope (ImageXpress Micro, Molecular Devices), and image analysis (MetaXpress, Molecular Devices) was performed to obtain average acetylated-tubulin and acetylated-histone signal per cell based on treatment. Replicate experimental data from incubations with inhibitor were normalized to DMSO controls.

[3] = target: T2, HDAC3 (Homo sapiens, UniProt O15379); assay: In vitro HDAC enzyme inhibition assay, HDAC3; type: biochemical; conditions: for HDAC3/HDAC6 in vitro selectivity: ratio of IC50 for HDAC3 relative to that of HDAC6; for IC50: recombinant full-length HDAC3, substrate MAZ1600 9 μM
T2 construct: Recombinant, full-length HDAC protein (BPS Biosciences) was incubated with fluorophore conjugated substrate; purchased BPS Biosciences
Procedure: as §1, §2

[4] = target: T3, HDAC5 (Homo sapiens, UniProt Q9UQL6); assay: In vitro HDAC enzyme inhibition assay, HDAC5; type: biochemical; conditions: for HDAC5/HDAC6 in vitro selectivity: ratio of IC50 for HDAC5 relative to that of HDAC6; for IC50: recombinant full-length HDAC5, substrate MAZ1675 40 μM; for selectivity toward HDAC6 compared to HDAC5 (in words): tested in vitro
T3 construct: Recombinant, full-length HDAC protein (BPS Biosciences) was incubated with fluorophore conjugated substrate; purchased BPS Biosciences
Procedure: as §1, §2

[5] = target: T4, HDAC8 (Homo sapiens, UniProt Q9BY41); assay: In vitro HDAC enzyme inhibition assay, HDAC8; type: biochemical; conditions: for HDAC8/HDAC6 in vitro selectivity: ratio of IC50 for HDAC8 relative to that of HDAC6; for IC50: recombinant full-length HDAC8, substrate MAZ1675 282 μM
T4 construct: Recombinant, full-length HDAC protein (BPS Biosciences) was incubated with fluorophore conjugated substrate; purchased BPS Biosciences
T4 sequence (Q9BY41 1-377): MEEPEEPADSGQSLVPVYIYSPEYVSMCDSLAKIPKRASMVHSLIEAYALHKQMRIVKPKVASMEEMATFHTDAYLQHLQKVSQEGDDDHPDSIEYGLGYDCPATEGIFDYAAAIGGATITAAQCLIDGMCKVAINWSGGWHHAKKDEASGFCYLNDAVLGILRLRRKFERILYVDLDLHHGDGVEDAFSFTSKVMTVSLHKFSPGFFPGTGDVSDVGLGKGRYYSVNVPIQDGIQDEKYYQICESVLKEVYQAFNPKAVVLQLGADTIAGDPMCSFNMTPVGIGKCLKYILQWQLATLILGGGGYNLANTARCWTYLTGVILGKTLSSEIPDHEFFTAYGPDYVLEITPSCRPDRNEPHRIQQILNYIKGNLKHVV
Procedure: as §1, §2

[6] = target: T5, HDAC4 (Homo sapiens, UniProt P56524); assay: In vitro HDAC enzyme inhibition assay, HDAC4; type: biochemical; conditions: for HDAC4/HDAC6 in vitro selectivity: ratio of IC50 for HDAC4 relative to that of HDAC6; for IC50: recombinant full-length HDAC4, substrate MAZ1675 10 μM; for selectivity toward HDAC6 compared to HDAC4 (in words): tested in vitro
T5 construct: Recombinant, full-length HDAC protein (BPS Biosciences) was incubated with fluorophore conjugated substrate; purchased BPS Biosciences
Procedure: as §1, §2

[7] = target: T6, HDAC6 (Homo sapiens, UniProt Q9UBN7); assay: In vitro HDAC enzyme inhibition assay, HDAC6; type: biochemical; conditions: recombinant full-length HDAC6, substrate MAZ1600 9 μM
T6 construct: Recombinant, full-length HDAC protein (BPS Biosciences) was incubated with fluorophore conjugated substrate; purchased BPS Biosciences
T6 sequence (Q9UBN7 1-1215): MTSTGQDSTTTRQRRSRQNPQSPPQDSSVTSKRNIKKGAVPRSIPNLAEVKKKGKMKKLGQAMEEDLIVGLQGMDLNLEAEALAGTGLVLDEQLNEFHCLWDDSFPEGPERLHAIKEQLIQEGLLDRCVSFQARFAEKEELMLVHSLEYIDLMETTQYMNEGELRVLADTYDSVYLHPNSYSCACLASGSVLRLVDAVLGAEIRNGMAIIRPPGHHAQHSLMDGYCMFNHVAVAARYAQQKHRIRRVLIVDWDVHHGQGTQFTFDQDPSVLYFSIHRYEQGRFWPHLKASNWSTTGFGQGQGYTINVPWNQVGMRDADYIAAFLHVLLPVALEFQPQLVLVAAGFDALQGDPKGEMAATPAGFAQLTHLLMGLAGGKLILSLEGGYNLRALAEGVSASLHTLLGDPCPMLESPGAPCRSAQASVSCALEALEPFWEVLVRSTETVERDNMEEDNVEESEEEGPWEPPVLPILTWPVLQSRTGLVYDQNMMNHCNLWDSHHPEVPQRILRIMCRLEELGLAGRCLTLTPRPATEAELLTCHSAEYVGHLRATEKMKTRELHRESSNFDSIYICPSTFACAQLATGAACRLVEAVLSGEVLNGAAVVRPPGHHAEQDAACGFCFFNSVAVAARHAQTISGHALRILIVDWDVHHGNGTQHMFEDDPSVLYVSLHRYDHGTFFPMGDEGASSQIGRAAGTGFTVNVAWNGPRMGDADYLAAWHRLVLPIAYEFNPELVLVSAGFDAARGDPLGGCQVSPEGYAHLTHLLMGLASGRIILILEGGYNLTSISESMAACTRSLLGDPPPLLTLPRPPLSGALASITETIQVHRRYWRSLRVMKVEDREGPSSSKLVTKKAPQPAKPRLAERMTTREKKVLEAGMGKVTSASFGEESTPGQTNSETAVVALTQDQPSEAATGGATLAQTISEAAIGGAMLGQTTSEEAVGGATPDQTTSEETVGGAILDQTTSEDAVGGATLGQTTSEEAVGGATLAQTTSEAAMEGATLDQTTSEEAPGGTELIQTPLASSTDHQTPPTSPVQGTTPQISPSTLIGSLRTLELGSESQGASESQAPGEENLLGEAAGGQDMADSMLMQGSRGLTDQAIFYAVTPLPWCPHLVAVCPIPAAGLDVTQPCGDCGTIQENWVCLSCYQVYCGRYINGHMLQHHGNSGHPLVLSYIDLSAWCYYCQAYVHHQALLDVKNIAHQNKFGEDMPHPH
Outline: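 Deacetylase activity of full-length recombinant HDAC assessed via trypsin-coupled AMC release from substrate at Km concentration, pH 7.4 buffer with TCEP. Kinetic fluorescence slopes were normalized to controls.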

[8] = target: T7, HDAC9 (Homo sapiens, UniProt Q9UKV0); assay: In vitro HDAC enzyme inhibition assay, HDAC9; type: biochemical; conditions: for HDAC9/HDAC6 in vitro selectivity: ratio of IC50 for HDAC9 relative to that of HDAC6; for IC50: recombinant full-length HDAC9, substrate MAZ1675 26 μM; for selectivity toward HDAC6 compared to HDAC9 (in words): tested in vitro
T7 construct: Recombinant, full-length HDAC protein (BPS Biosciences) was incubated with fluorophore conjugated substrate; purchased BPS Biosciences
Procedure: as §1, §2

[9] = test system: acetylated histones; assay: High-content image analysis of induction of acetylated histones in A549 cells; conditions: Homo sapiens, A549, 8 h, read-out: EC50 for half-maximal induction of acetylated histones (AcHistone)
Procedure: as §3

T2 sequence (O15379 whole entry): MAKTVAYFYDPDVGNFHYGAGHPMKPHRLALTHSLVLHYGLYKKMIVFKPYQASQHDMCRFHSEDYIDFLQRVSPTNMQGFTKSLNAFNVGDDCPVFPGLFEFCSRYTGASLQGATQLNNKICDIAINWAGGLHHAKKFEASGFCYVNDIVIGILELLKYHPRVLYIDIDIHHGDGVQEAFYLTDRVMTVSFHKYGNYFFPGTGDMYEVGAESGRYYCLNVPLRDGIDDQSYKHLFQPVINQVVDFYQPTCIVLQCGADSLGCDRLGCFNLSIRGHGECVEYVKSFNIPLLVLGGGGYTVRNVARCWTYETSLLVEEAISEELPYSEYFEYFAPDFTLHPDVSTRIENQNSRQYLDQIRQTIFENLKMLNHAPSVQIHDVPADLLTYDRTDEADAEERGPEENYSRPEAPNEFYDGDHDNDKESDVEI
T2 sequence (Q9Y618 395-489 partner limits assumed): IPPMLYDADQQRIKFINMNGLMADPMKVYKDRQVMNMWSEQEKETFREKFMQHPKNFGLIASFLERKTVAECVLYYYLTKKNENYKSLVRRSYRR
T7 sequence (Q9UKV0 whole entry): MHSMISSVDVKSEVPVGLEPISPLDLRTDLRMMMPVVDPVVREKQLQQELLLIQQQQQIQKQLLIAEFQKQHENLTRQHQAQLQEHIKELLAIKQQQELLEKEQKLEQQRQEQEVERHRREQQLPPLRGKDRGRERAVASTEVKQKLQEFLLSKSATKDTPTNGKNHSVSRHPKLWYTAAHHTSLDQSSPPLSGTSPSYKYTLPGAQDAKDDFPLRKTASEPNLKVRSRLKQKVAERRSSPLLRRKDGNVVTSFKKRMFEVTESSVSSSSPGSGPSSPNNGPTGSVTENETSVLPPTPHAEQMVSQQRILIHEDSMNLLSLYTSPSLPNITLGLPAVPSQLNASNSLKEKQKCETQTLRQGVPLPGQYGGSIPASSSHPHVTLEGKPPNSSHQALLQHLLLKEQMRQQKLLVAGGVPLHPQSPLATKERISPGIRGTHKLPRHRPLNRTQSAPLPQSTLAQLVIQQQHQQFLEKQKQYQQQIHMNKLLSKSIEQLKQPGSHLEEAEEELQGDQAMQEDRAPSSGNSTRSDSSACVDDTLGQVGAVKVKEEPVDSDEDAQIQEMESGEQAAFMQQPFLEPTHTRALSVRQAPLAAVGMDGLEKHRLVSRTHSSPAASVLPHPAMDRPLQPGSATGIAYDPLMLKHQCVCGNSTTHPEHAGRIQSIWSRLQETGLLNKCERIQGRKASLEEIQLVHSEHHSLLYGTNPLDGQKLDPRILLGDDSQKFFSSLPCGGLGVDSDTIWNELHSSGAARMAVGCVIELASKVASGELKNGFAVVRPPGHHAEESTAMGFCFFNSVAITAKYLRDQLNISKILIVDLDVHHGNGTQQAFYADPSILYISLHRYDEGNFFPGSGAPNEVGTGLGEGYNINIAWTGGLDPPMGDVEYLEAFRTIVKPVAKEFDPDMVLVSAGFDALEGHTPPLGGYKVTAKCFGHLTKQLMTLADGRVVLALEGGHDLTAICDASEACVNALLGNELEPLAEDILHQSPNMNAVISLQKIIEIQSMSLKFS
T1 sequence (Q13547 whole entry): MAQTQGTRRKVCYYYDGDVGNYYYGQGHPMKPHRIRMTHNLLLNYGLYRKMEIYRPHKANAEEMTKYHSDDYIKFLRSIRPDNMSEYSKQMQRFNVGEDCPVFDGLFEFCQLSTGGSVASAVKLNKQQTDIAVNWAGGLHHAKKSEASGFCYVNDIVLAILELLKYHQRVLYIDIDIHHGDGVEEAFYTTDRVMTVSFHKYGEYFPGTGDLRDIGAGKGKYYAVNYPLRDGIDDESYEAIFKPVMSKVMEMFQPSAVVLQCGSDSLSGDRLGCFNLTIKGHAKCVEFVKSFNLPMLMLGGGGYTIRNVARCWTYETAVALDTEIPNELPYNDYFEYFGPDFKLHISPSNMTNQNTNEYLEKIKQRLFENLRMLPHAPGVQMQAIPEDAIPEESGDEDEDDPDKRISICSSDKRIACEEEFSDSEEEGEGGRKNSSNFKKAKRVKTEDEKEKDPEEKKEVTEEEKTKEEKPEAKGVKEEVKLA
T5 sequence (P56524 whole entry): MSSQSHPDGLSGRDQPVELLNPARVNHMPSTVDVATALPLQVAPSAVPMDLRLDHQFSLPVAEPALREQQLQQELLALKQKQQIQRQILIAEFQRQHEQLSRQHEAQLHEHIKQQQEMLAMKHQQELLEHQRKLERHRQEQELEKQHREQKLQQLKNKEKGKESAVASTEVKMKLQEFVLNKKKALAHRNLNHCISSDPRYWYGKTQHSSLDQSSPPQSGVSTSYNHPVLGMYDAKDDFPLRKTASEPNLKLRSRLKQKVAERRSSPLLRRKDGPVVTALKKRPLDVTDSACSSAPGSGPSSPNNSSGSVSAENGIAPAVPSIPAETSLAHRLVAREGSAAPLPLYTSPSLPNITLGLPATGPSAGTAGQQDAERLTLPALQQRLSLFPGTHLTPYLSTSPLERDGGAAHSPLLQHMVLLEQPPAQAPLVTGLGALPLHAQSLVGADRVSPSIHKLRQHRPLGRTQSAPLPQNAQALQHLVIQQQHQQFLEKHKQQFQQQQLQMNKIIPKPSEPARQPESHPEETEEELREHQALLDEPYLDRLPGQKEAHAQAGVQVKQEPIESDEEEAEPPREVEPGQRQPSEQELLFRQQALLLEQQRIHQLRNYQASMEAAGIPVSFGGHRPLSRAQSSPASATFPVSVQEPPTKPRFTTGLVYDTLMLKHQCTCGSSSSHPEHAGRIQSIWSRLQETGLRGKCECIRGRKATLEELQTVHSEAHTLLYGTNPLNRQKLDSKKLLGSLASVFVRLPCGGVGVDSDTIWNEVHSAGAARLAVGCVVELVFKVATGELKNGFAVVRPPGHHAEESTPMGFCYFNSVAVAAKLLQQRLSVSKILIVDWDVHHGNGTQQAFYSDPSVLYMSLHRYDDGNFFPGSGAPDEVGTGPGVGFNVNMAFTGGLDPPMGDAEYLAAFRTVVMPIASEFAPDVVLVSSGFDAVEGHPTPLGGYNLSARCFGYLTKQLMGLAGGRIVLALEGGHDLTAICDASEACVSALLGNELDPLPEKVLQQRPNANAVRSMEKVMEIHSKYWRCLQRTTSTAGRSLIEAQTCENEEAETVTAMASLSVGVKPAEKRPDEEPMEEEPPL
T3 sequence (Q9UQL6 whole entry): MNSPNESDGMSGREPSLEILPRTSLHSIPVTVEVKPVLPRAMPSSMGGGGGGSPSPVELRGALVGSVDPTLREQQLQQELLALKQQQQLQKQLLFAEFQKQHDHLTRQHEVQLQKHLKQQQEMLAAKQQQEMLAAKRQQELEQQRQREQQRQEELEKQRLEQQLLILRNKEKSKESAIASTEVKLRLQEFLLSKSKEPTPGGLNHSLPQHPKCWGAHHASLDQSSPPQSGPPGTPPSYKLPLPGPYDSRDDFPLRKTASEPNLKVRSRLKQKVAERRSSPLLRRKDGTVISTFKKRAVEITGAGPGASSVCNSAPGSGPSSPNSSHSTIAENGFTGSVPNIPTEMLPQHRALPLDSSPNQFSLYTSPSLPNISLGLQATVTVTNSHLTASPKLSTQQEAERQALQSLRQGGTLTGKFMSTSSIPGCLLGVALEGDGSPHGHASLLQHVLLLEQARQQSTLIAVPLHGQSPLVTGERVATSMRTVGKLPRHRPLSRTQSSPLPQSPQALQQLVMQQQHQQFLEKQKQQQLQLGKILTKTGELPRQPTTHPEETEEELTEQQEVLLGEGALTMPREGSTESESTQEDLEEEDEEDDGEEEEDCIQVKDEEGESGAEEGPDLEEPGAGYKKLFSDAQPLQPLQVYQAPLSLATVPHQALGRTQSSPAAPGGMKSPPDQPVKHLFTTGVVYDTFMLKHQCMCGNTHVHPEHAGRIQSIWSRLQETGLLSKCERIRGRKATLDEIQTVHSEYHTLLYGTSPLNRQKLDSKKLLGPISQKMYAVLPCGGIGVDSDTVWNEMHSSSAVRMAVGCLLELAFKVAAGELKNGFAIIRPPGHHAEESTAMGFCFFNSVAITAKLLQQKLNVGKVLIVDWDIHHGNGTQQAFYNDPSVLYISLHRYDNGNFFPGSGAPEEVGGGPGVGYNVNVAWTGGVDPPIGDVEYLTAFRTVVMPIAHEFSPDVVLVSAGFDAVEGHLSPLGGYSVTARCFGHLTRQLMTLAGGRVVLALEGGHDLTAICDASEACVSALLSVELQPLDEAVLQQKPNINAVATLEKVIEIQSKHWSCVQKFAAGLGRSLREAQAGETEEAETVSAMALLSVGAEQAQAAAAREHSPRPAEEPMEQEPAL

| Structure (SMILES) | HDAC1/HDAC6 in vitro selectivity [1] | IC50 [1] [nM] | EC50 [2] [nM] | AcHistone/AcTubulin in cell selectivity toward HDAC6 [2] | HDAC3/HDAC6 in vitro selectivity [3] | IC50 [3] [nM] | HDAC5/HDAC6 in vitro selectivity [4] | IC50 [4] [nM] | selectivity toward HDAC6 compared to HDAC5 (in words) [4] | HDAC8/HDAC6 in vitro selectivity [5] | IC50 [5] [nM] | HDAC4/HDAC6 in vitro selectivity [6] | IC50 [6] [nM] | selectivity toward HDAC6 compared to HDAC4 (in words) [6] | IC50 [7] [nM] | HDAC9/HDAC6 in vitro selectivity [8] | IC50 [8] [nM] | selectivity toward HDAC6 compared to HDAC9 (in words) [8] | EC50 [9] [nM] |
| --- | --- | --- | --- | --- | --- | --- | --- | --- | --- | --- | --- | --- | --- | --- | --- | --- | --- | --- | --- |
| COc1ccc2c(c1)[nH]c(=O)n2Cc1ccc(C(=O)NO)cc1 [B7, N-hydroxy-4-((5-methoxy-2-oxo-2,3-dihydro-1H-benzo[d]imidazol-1-yl)methyl)benzamide] | 1224 | 31.5 | 154 | 10.013 | 1236 | 31.8 | 57925 | 1490 | exceptionally high selectivity (Inhibitors with in vitro selectivity values for HDAC6 of at least 30,000 are considered to have exceptionally high selectivity toward HDAC6) | 21403 | 551 | 60006 | 1540 | exceptionally high selectivity (Inhibitors with in vitro selectivity values for HDAC6 of at least 30,000 are considered to have exceptionally high selectivity toward HDAC6) | 0.0257 | 47920 | 1230 | exceptionally high selectivity (Inhibitors with in vitro selectivity values for HDAC6 of at least 30,000 are considered to have exceptionally high selectivity toward HDAC6) | 1540 |
| O=C(NO)c1ccc(Cn2c(=O)[nH]c3cc(F)ccc32)cc1 [B3, 4-((5-fluoro-2-oxo-2,3-dihydro-1H-benzo[d]imidazol-1-yl)methyl)N-hydroxybenzamide] | 2749 | 59.3 | 70.2 | 21.1 | 6307 | 136 | 51438 | 1110 | exceptionally high selectivity (Inhibitors with in vitro selectivity values for HDAC6 of at least 30,000 are considered to have exceptionally high selectivity toward HDAC6) | 12899 | 278 | 79927 | 1720 | exceptionally high selectivity (Inhibitors with in vitro selectivity values for HDAC6 of at least 30,000 are considered to have exceptionally high selectivity toward HDAC6) | 0.0216 | 66950 | 1440 | exceptionally high selectivity (Inhibitors with in vitro selectivity values for HDAC6 of at least 30,000 are considered to have exceptionally high selectivity toward HDAC6) | 1480 |
| O=C(NO)c1ccc(Cn2c(C(F)(F)F)nc3cc(Br)ccc32)cc1 [A5, 4-((5-bromo-2-(trifluoromethyl)-1H-benzo[d]imidazol-l-yl)methyl)-N-hydroxybenzamide] | 541 | 167 | 190 | 10.17 | 2529 | 784 | 476 | 148 | – | 3501 | 1080 | 2783 | 862 | – | 0.31 | 2420 | 750 | – | 1930 |
| O=C(NO)c1ccc(Cn2c(C(F)(F)F)nc3cc(F)ccc32)cc1 [A3, 4-((5-fluoro-2-(trifluoromethyl)-1H-benzo[d]imidazol-1-yl)methyl)-N-hydroxybenzamide] | 812 | 466 | 77.3 | 7.664 | 3126 | 1790 | 486 | 279 | – | 2540 | 1460 | 1901 | 1090 | – | 0.574 | 2127 | 1220 | – | 592 |
| COc1ccc2c(c1)nc(C(F)(F)F)n2Cc1ccc(C(=O)NO)cc1 [A6, N-hydroxy-4-((5-methoxy-2-(trifluoromethyl)-1H-benzo[d]imidazol-1-yl)methyl)benzamide] | 629 | 246 | 212 | 12.2081 | 2067 | 810 | 637 | 250 | – | 3927 | 1540 | 2414 | 946 | – | 0.392 | 1871 | 733 | – | 2590 |
| O=C(NO)c1ccc(Cn2cnc3ccccc32)cc1 [A7] | 2695 | 264 | 159 | 1.459 | 4791 | 469 | 9794 | 958 | – | 6573 | 643 | 17962 | 1760 | – | 0.0979 | 16631 | 1630 | – | 232 |
